From PMC10690091 (Cancer Research, 2023) come the findings set out here.

In one assay the target is T1, ERα (Homo sapiens, UniProt P03372).
T1 sequence (P03372 1-595): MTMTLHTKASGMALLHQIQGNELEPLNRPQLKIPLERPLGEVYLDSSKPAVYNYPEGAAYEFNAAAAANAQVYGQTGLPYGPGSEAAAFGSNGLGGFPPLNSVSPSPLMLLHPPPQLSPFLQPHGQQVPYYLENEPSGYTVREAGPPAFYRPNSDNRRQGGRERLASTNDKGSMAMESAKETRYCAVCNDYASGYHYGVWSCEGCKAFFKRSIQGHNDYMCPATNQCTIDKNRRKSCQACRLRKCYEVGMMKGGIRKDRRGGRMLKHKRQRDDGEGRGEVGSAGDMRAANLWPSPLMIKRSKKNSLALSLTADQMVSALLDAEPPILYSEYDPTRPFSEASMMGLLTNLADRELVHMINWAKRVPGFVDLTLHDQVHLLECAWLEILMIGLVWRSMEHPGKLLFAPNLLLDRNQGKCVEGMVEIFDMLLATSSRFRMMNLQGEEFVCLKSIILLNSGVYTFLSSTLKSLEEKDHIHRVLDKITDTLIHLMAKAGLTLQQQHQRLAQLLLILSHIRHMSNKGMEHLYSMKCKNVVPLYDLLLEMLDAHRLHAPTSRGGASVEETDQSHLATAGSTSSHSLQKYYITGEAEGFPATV
The assay can be described thus: ER degradation by Western blot in ER+ cell lines. Conditions: 100 nmol/L, 48 hours, panel of ER-driven cell lines. Format: cell-based. The procedure:
(§1) Cells were seeded into 12-well tissue culture-treated plates (0.5×10^6 cells/well) in phenol red-free RPMI medium containing 5% (v/v) charcoal-stripped FBS.
To detect ER agonism, Ishikawa cells were incubated in media containing 5% (v/v) double charcoal-stripped FBS, achieved by stripping FBS using activated charcoal (C9157, Sigma). […] Protein levels were measured on the G-box using Pierce West Dura and West Femto chemiluminescent reagents and Syngene software.
For orientation: In western blotting, separated proteins are transferred to a membrane and probed.

For a further assay, the system named is ST1799/HI/PBR PDX. Nature of the assay: Efficacy in palbociclib-resistant ST1799/HI/PBR PDX model. Format: in vivo, mice. Conditions: camizestrant 10 mg/kg daily, palbociclib 50 mg/kg, abemaciclib 50 mg/kg, capivasertib 130 mg/kg, 40 days. The method, then: For all PDX models, tumors were measured twice weekly; changes in tumor volume and growth inhibition were determined by bilateral Vernier caliper measurement (length x width). Length was the longest diameter across the tumor and width the corresponding perpendicular.
For efficacy studies, animals were randomized into treatment groups and dosing started once tumor volume reached 150–300 mm^3. Details of efficacy studies, and group sizes and treatments are described in corresponding figure legends. PDX models in Fig. 6 and Supplementary Fig. S1 were part of the multi-arm study (with arms irrelevant to this publication) with common control monotherapy arms (e.g., the vehicle-treated group).
(TV) was calculated using the formula: TV (mm3) = (3.142 x max (length:width) x min […]
established tumors were removed from two donor mice and dissected into 3x3x3 mm pieces in RPMI 1640 media. […] TV was calculated as TV (mm3) = width2 x length x 0.52.
For the combination studies in the CTC174 PDX model (hormone-independent), established tumors were removed from donor mice and dissected into 3x3x3 mm pieces in RPMI 1640 media. […] TV was calculated using the formula: TV (mm3) = (3.142 x max (length:width) x min (length:width) x min (length:width))/6,000, or (mm3) = width2 x length x 0.52 for the CTC174 study. […]

Assay [1] addresses T2, ER in Ishikawa endometrial cancer cell line (Homo sapiens, UniProt P03372).
T2 sequence (P03372 1-595): T1 sequence (P03372 1-595)
The assay can be described thus: ER degradation and agonism (PgR expression) in Ishikawa cells. In kind it is cell-based. The method, then:
as §1
Cell lysates were loaded on NuPAGE 4% to 12% Bis-Tris Midi Protein Gels, transferred to nitrocellulose membranes and immunoblotted with anti-ER antibody (clone SP1, Thermo Fisher Scientific). To detect ER agonism, Ishikawa cells were incubated in media containing 5% (v/v) double charcoal-stripped FBS, achieved by stripping FBS using activated charcoal (C9157, Sigma). Blots were probed with anti-PgR antibody (clone 636, Dako) then horseradish peroxidase secondary antibody (anti-mouse, 7076 Cell Signaling Technology or anti-rabbit, 7070 Cell Signaling Technology). Protein levels were measured on the G-box using Pierce West Dura and West Femto chemiluminescent reagents and Syngene software.

Take `C[C@@H]1Cc2c(ccc3[nH]ncc23)[C@@H](c2ccc(NC3CN(CCCF)C3)cn2)N1CC(F)(F)F` [camizestrant]: at ERα, the ER protein degradation result is given as “degrades ER protein to the same extent as fulvestrant”. Besides, the tumor growth result with ST1799/HI/PBR PDX was “decreased tumor growth compared with fulvestrant”. In assay [1], the “ER agonism (PgR expression as a marker)” value is given as “no evidence of PgR expression”. The ER degradation result in assay [1] (24 hours) was “degraded ER to the same extent as fulvestrant”.
